Data: ChEMBL document CHEMBL4823254, “Tetrahydroquinoline-Capped Histone Deacetylase 6 Inhibitor SW-101 Ameliorates Pathological Phenotypes in a Charcot-Marie-Tooth Type 2A Mouse Model” (J Med Chem, 2021)
One block for each compound: values may come before it.

Key:
Histone deacetylase 1 = Histone deacetylase 1 (Homo sapiens, UniProt Q13547); experiment: Inhibition of full length recombinant C-terminal FLAG-His-tagged human HDAC1 expressed in baculovirus infected Sf21 insect cells using RHK-K(Ac)-AMC peptide as substrate measured after 60 mins by fluorimetry analysis
Homo sapiens = organism: Homo sapiens; experiment: Selectivity index, ratio of IC50 for full length recombinant C-terminal FLAG-His-tagged human HDAC1 expressed in baculovirus infected Sf21 insect cells using RHK-K(Ac)-AMC peptide as substrate measured after 60 mins by fluorimetry analysis to IC50 for full length recombinant N-terminal GST-tagged …
Description: Selectivity index, ratio of IC50 for full length recombinant C-terminal FLAG-His-tagged human HDAC1 expressed in baculovirus infected Sf21 insect cells using RHK-K(Ac)-AMC peptide as substrate measured after 60 mins by fluorimetry analysis to IC50 for full length recombinant N-terminal GST-tagged human HDAC6 expressed in baculovirus infected Sf9 insect cells using RHK-K(Ac)-AMC peptide as substrate measured after 90 mins by fluorimetry analysis

[1] = Stability in CD1 mouse pooled liver microsomes assessed as parent compound remaining measured at 60 mins in presence of NADPH by LC-MS/MS analysis; type: ADME, Microsome; details: CD1, mouse, pooled liver microsomes, read-out: Stabilty
[2] = Half life in CD1 mouse pooled liver microsomes assessed as parent compound remaining measured up to 60 mins in presence of NADPH by LC-MS/MS analysis; type: ADME, Microsome; details: CD1, mouse, pooled liver microsomes
[3] = Stability in human pooled liver microsomes assessed as parent compound remaining measured at 60 mins in presence of NADPH by LC-MS/MS analysis; type: ADME, Microsome
[4] = Half life in human pooled liver microsomes assessed as parent compound remaining measured up to 60 mins in presence of NADPH by LC-MS/MS analysis; type: ADME, Microsome
[5] = biological target: T1, Protein deacetylase HDAC6 (Homo sapiens, UniProt Q9UBN7); experiment: biochemical
T1 sequence (Q9UBN7 whole entry): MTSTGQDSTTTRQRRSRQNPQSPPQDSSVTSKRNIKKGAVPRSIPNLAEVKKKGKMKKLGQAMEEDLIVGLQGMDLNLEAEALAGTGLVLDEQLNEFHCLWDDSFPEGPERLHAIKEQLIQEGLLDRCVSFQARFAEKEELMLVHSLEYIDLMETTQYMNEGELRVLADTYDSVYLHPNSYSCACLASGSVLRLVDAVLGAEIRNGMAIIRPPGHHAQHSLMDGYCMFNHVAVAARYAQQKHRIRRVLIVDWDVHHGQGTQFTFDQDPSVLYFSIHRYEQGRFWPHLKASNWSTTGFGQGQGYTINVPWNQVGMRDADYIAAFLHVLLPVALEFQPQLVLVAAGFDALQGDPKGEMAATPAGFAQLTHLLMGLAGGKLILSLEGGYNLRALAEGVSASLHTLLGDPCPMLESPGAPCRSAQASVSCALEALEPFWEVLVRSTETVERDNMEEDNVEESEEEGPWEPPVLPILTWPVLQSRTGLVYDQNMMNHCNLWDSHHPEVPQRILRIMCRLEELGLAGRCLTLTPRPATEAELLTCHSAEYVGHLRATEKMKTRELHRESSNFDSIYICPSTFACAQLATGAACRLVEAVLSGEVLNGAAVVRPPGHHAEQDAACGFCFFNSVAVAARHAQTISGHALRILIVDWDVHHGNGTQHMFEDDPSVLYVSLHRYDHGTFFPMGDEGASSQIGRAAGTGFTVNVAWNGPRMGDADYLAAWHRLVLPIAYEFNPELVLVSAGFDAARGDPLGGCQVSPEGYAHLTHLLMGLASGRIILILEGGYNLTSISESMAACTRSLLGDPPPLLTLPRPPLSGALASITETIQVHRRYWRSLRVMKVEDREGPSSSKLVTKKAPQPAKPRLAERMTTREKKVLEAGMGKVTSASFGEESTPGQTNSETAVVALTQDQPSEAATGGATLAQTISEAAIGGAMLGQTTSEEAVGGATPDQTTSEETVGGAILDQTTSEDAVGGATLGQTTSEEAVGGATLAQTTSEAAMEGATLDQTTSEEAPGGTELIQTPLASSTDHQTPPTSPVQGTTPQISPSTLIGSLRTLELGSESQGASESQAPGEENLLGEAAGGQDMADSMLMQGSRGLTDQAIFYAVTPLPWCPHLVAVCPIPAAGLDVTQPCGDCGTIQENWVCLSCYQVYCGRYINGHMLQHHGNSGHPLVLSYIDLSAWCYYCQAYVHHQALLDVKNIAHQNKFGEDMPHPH
Description: Inhibition of full length recombinant N-terminal GST-tagged human HDAC6 expressed in baculovirus infected Sf9 insect cells using RHK-K(Ac)-AMC peptide as substrate measured after 90 mins by fluorimetry analysis

[6] = biological target: T2, Protein deacetylase HDAC6 (Mus musculus) (UniProt Q9Z2V5); experiment: Inhibition of HDAC6 in mouse Neuro2a cells assessed as fold increase in ratio of acetylated alpha-tubulin to alpha tubulin at 1 uM incubated for overnight by Western blot analysis; type: cell-based; details: time 12.0 hrs
T2 sequence (whole entry): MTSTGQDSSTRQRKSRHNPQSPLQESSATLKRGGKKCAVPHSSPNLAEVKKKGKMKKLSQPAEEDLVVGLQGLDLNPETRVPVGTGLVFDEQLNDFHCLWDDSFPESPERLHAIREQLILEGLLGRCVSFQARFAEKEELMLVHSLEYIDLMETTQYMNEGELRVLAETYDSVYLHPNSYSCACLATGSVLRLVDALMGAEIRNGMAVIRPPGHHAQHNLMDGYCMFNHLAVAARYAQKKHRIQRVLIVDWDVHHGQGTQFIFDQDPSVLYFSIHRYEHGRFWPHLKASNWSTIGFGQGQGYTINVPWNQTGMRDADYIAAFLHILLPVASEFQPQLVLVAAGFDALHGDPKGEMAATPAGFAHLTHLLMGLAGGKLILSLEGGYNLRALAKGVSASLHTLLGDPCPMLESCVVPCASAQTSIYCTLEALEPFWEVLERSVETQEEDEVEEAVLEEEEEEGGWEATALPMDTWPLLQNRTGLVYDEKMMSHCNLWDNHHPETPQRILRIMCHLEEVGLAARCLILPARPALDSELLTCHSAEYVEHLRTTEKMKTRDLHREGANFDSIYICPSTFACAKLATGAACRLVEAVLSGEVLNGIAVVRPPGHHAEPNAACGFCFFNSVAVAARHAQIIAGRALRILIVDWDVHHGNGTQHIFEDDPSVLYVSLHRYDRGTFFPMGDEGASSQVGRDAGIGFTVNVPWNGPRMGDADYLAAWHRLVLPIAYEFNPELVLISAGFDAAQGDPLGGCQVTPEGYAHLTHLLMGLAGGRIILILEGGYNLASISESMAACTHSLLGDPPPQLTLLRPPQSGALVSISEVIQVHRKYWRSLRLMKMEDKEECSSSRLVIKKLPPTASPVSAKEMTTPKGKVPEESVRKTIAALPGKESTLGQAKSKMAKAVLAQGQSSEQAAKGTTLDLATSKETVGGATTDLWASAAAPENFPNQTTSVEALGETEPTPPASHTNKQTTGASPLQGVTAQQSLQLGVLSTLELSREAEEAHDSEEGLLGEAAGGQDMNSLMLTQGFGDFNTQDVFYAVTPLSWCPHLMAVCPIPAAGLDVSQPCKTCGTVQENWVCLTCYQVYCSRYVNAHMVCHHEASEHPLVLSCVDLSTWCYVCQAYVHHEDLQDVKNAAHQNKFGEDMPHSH

[7] = Half life in liver microsomes; type: ADME, Microsome
[8] = Half life in hepatocytes; type: ADME, cell-based, Hepatocyte
[9] = biological target: T2, Protein deacetylase HDAC6 (Mus musculus); experiment: Inhibition of HDAC6 in mouse Neuro2a cells assessed as fold increase in ratio of acetylated alpha-tubulin to alpha tubulin at 0.01 uM incubated for overnight by Western blot analysis; type: cell-based; details: time 12.0 hrs
Histone deacetylase 2 = Histone deacetylase 2 (Homo sapiens, UniProt Q92769); experiment: Inhibition of recombinant human HDAC2 using Ac-GAK(Ac)-AMC as substrate preincubated for 10 mins followed by substrate addition and measured after 30 mins by fluorescence-based assay
Histone deacetylase 3 = Histone deacetylase 3 (Homo sapiens, UniProt O15379); experiment: Inhibition of recombinant human HDAC3 using Ac-GAK(Ac)-AMC as substrate preincubated for 10 mins followed by substrate addition and measured after 30 mins by fluorescence-based assay
Histone deacetylase 4 = Histone deacetylase 4 (Homo sapiens, UniProt P56524); experiment: Inhibition of recombinant human HDAC4 using Boc-Lys(TFA)-AMC as substrate preincubated for 10 mins followed by substrate addition and measured after 30 mins by fluorescence-based assay
Histone deacetylase 5 = Histone deacetylase 5 (Homo sapiens, UniProt Q9UQL6); experiment: Inhibition of recombinant human HDAC5 using Boc-Lys(TFA)-AMC as substrate preincubated for 10 mins followed by substrate addition and measured after 30 mins by fluorescence-based assay
Histone deacetylase 9 = Histone deacetylase 9 (Homo sapiens, UniProt Q9UKV0); experiment: Inhibition of recombinant human HDAC9 using Boc-Lys(TFA)-AMC as substrate preincubated for 10 mins followed by substrate addition and measured after 30 mins by fluorescence-based assay
[10] = biological target: T2, Protein deacetylase HDAC6 (Mus musculus); experiment: In vivo inhibition of HDAC6 in wild type mouse assessed as increase in alpha-tubulin acetylation in sciatic nerve tissue at 20 mg/kg, ip administered for 12 hrs by immunoblot analysis relative to control; type: functional, organism-based; set-up: scale not given: the % may be the effect or the level left
Histone deacetylase 8 = biological target: T3, Histone deacetylase 8 (Homo sapiens, UniProt Q9BY41)
T3 sequence (Q9BY41 whole entry): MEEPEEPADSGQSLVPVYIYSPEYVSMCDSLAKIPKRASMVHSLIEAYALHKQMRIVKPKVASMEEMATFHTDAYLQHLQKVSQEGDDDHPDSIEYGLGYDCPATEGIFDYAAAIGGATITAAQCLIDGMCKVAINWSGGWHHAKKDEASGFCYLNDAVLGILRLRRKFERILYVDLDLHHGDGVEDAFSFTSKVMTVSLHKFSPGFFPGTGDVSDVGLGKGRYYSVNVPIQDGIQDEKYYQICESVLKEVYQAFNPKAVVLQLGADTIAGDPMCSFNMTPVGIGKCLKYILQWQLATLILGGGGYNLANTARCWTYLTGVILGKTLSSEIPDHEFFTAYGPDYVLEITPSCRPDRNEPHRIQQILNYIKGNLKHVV
Description: Inhibition of recombinant human HDAC8 using Boc-Lys(TFA)-AMC as substrate preincubated for 10 mins followed by substrate addition and measured after 30 mins by fluorescence-based assay

Histone deacetylase 7 = biological target: T4, Histone deacetylase 7 (Homo sapiens, UniProt Q8WUI4)
T4 sequence (Q8WUI4 whole entry): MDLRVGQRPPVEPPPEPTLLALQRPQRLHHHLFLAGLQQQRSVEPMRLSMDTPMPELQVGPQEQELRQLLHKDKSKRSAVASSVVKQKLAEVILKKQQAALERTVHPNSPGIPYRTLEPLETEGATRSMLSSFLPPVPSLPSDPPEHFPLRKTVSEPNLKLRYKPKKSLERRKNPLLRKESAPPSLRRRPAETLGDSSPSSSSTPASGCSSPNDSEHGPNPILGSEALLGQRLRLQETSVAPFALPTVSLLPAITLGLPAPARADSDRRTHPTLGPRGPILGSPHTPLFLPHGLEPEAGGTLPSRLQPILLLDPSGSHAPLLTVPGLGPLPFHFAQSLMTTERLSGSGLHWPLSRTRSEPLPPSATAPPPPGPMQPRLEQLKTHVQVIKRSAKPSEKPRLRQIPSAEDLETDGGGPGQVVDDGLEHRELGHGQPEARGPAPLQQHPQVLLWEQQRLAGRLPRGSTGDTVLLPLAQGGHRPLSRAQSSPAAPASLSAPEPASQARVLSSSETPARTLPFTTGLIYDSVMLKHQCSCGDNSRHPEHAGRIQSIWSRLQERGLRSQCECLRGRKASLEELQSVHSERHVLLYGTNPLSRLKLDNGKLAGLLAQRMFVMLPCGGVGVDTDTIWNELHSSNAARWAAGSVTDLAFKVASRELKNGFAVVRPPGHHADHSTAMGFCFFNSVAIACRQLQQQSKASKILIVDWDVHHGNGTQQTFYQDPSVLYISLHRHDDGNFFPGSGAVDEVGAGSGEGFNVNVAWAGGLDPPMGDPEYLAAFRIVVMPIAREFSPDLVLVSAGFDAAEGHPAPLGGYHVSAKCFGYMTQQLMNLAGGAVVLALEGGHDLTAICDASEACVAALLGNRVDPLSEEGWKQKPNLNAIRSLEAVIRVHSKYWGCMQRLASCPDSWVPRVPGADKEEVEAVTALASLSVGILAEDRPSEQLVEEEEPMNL
Description: Inhibition of recombinant human HDAC7 using Boc-Lys(TFA)-AMC as substrate preincubated for 10 mins followed by substrate addition and measured after 30 mins by fluorescence-based assay

Sequence of Histone deacetylase 1 (Q13547 whole entry): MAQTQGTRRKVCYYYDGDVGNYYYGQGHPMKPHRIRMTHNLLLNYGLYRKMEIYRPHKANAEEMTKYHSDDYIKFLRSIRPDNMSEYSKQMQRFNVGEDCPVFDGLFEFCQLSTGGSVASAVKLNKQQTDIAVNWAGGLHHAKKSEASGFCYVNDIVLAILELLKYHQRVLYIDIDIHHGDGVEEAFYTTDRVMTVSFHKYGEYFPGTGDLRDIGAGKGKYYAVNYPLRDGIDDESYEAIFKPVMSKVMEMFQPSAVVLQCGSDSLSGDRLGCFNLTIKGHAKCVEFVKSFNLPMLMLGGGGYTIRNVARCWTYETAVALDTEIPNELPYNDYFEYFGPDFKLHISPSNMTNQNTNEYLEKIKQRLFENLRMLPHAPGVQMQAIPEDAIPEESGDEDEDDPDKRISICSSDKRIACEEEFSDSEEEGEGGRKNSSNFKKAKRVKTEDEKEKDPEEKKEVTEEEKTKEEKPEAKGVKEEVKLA
Sequence of Histone deacetylase 2 (Q92769 whole entry): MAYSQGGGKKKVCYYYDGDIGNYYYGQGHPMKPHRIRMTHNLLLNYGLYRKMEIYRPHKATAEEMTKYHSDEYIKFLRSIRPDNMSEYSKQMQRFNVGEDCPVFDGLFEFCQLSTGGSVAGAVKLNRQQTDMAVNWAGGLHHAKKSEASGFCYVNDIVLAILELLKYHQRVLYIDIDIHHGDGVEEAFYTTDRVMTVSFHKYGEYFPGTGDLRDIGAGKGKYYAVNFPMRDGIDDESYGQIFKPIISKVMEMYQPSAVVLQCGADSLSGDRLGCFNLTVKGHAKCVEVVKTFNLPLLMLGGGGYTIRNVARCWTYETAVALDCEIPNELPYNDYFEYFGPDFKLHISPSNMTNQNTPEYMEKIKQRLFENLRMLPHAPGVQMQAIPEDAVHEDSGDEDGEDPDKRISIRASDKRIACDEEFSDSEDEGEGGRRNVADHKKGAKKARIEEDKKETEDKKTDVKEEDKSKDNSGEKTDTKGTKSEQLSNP
Sequence of Histone deacetylase 3 (O15379 whole entry): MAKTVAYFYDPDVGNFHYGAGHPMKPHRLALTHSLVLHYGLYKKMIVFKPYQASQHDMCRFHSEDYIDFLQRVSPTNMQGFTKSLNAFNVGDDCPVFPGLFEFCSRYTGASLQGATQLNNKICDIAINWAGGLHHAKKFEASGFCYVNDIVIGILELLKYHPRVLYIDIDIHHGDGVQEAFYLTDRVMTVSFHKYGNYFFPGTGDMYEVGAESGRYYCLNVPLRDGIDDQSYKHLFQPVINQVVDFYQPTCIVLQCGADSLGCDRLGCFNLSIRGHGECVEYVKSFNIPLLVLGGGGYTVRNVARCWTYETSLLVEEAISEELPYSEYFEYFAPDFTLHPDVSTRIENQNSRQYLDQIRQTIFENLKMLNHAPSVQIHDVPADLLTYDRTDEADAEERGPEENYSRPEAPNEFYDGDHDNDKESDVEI
Sequence of Histone deacetylase 5 (Q9UQL6 whole entry): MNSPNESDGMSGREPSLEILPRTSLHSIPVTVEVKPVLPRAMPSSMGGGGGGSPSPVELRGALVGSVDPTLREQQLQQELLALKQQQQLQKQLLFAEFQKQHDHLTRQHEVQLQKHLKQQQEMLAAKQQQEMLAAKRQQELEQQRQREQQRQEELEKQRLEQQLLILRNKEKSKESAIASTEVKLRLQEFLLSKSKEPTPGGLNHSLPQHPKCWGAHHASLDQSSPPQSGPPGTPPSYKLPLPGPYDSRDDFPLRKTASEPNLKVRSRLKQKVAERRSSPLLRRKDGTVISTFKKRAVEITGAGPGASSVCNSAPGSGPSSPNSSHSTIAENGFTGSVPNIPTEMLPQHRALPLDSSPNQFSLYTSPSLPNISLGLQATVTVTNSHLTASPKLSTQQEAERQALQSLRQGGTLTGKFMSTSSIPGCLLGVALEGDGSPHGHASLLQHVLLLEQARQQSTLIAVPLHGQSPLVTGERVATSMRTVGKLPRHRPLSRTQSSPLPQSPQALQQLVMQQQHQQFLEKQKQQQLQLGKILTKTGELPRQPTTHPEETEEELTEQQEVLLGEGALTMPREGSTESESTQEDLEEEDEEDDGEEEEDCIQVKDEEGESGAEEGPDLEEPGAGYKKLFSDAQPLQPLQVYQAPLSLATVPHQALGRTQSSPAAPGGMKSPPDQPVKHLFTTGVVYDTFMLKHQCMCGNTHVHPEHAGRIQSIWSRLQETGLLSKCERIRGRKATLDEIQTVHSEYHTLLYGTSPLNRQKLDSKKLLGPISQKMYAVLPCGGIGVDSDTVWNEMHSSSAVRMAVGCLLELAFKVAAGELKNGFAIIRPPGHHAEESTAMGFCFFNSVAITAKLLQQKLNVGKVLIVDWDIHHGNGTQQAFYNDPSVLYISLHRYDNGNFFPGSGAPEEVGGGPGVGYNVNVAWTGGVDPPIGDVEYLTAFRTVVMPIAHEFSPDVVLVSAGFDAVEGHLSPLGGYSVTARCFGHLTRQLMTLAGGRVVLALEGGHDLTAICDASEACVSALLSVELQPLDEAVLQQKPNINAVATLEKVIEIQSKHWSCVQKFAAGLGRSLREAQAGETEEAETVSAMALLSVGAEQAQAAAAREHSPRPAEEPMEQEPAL
Sequence of Histone deacetylase 9 (Q9UKV0 whole entry): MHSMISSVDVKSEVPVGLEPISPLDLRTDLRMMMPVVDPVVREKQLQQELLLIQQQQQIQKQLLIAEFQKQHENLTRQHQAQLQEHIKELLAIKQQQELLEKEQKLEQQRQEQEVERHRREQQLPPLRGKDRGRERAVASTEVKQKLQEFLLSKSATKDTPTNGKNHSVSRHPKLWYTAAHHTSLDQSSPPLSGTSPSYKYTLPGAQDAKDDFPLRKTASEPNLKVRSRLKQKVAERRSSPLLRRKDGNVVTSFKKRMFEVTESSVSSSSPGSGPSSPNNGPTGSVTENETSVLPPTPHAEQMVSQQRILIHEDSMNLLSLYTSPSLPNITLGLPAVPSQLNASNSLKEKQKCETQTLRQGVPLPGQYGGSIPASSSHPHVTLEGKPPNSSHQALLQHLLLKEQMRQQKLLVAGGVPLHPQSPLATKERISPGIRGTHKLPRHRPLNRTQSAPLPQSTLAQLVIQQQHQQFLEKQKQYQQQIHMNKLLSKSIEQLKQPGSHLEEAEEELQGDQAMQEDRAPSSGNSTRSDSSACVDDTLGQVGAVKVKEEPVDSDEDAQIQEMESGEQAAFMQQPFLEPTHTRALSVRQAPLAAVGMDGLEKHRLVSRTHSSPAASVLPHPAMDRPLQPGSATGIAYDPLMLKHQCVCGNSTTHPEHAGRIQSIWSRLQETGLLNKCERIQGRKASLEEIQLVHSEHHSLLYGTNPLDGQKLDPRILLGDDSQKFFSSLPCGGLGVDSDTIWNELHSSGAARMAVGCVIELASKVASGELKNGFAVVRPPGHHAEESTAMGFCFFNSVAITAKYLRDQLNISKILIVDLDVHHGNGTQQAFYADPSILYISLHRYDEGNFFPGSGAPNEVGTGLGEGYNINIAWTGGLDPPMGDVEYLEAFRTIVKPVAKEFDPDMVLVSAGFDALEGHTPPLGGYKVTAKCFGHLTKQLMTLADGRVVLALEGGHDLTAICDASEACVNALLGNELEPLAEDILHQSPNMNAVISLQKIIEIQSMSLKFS
Sequence of Histone deacetylase 4 (P56524 whole entry): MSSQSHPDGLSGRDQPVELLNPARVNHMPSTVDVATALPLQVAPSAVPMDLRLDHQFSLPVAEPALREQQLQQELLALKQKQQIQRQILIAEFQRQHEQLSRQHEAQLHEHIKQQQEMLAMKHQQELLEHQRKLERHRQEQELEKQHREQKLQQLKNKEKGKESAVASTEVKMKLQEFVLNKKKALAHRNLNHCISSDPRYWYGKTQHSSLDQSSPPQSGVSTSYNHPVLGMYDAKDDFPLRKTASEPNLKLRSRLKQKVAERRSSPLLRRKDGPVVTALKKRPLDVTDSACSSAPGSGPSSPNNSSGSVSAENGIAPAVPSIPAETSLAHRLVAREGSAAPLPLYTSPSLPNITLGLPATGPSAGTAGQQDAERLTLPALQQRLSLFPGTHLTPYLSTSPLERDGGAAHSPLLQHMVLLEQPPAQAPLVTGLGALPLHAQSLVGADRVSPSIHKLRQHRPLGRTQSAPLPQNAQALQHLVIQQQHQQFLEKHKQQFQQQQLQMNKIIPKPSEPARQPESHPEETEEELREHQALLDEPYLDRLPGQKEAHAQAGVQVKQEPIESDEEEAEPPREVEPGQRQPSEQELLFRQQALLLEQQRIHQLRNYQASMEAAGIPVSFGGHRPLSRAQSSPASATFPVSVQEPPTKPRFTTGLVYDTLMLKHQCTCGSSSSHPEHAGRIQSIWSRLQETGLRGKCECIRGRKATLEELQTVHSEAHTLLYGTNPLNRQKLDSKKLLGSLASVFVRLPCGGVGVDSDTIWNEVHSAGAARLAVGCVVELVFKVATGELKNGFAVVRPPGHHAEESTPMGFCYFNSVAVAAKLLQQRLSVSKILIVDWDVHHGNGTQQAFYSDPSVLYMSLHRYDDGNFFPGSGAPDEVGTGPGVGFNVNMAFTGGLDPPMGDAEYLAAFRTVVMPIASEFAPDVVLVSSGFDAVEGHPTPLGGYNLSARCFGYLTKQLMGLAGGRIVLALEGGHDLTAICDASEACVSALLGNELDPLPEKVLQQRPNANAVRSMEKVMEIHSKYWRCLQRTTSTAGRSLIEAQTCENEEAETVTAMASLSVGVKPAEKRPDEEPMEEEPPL

IC50 (Histone deacetylase 1): 15 nM
remaining at 1 h [1]: 34.1%
half-life [2]: 40.4 min
remaining at 1 h ([3]; pooled liver microsomes, read-out: Stabilty): 73%
half-life ([4]; pooled liver microsomes): 182 min
IC50 [5]: 11000 nM
SMILES: O=C(NO)c1ccc(CN2CCCc3ccccc32)cc1
Ratio IC50 (Homo sapiens): 733

fold change (FC) [6]: 1
half-life [7]: < 30 min
half-life [8]: < 30 min
fold change (FC) [9]: 1
remaining at 1 h [1]: 27.3%
half-life [2]: 31.9 min
Stabilty ([3]; microsomes, 1 h): 42.6%
t1/2 ([4]; microsomes, 1 h): 483 min
IC50 (Histone deacetylase 2): 282 nM
IC50 (Histone deacetylase 3): 1270 nM
IC50 (Histone deacetylase 4): 2140 nM
IC50 (Histone deacetylase 5): 1480 nM
IC50 (Histone deacetylase 9): 3400 nM
Activity [10]: 125%
IC50 (Histone deacetylase 8): 3060 nM
IC50 (Histone deacetylase 7): 511 nM
SMILES: O=C(NO)c1ccc(CN2CCCc3cc(Cl)ccc32)cc1
